The source made the active and inactive calls. No cut-off for these calls is given here.
How the values were obtained:
[1] = test system: SCC-4; assay: Inhibition of cell proliferation in human SCC-4 cells upto 10 umol/L incubated for 72 hrs by DAPI staining based analysis; type: functional; conditions: dose <= 10.0 µmol/L
[2] = molecular target: Macrophage colony-stimulating factor 1 receptor (Homo sapiens) (UniProt P07333); assay: Inhibition of Fms (unknown origin) at 1 uM in presence of ATP relative to control; values are per cent of control
[3] = test system: NIH3T3; type: functional, organism-based; conditions: Mus musculus, dose 30-300 mg/kg, route po, time 9.0 day
[4] = molecular target: Receptor-interacting serine/threonine-protein kinase 2 (Homo sapiens) (UniProt O43353); assay: Inhibition of RIPK2 (unknown origin) at 1 uM in presence of ATP relative to control; values are per cent of control
[5] = molecular target: CDK3/Cyclin E (Homo sapiens) (UniProt P24864+Q00526); assay: Inhibition of CDK3/cyclinE (unknown origin) at 1 uM in presence of ATP relative to control; values are per cent of control
[6] = molecular target: Eukaryotic elongation factor 2 kinase (Homo sapiens) (UniProt O00418); assay: Inhibition of eEF-2K (unknown origin) at 1 uM in presence of ATP relative to control; values are per cent of control
[7] = molecular target: Tyrosine-protein kinase JAK2 (Homo sapiens) (UniProt O60674); assay: Inhibition of JAK2 (unknown origin) at 1 uM in presence of ATP relative to control; values are per cent of control
[8] = molecular target: Serine/threonine-protein kinase mTOR (Homo sapiens) (UniProt P42345); assay: Inhibition of MTOR (unknown origin) at 1 uM in presence of ATP relative to control; values are per cent of control
[9] = molecular target: Serine/threonine-protein kinase ULK3 (Homo sapiens) (UniProt Q6PHR2); assay: Inhibition of ULK3 (unknown origin) at 1 uM in presence of ATP relative to control; values are per cent of control
[10] = molecular target: Tyrosine-protein kinase FRK (Homo sapiens) (UniProt P42685); assay: Inhibition of PTK5 (unknown origin) at 1 uM in presence of ATP relative to control; values are per cent of control
[11] = molecular target: ALK tyrosine kinase receptor (Homo sapiens) (UniProt Q9UM73); assay: Inhibition of ALK (unknown origin) at 1 uM in presence of ATP relative to control; values are per cent of control
ALK tyrosine kinase receptor (Homo sapiens), sequence (Q9UM73 19-1620 limits assumed): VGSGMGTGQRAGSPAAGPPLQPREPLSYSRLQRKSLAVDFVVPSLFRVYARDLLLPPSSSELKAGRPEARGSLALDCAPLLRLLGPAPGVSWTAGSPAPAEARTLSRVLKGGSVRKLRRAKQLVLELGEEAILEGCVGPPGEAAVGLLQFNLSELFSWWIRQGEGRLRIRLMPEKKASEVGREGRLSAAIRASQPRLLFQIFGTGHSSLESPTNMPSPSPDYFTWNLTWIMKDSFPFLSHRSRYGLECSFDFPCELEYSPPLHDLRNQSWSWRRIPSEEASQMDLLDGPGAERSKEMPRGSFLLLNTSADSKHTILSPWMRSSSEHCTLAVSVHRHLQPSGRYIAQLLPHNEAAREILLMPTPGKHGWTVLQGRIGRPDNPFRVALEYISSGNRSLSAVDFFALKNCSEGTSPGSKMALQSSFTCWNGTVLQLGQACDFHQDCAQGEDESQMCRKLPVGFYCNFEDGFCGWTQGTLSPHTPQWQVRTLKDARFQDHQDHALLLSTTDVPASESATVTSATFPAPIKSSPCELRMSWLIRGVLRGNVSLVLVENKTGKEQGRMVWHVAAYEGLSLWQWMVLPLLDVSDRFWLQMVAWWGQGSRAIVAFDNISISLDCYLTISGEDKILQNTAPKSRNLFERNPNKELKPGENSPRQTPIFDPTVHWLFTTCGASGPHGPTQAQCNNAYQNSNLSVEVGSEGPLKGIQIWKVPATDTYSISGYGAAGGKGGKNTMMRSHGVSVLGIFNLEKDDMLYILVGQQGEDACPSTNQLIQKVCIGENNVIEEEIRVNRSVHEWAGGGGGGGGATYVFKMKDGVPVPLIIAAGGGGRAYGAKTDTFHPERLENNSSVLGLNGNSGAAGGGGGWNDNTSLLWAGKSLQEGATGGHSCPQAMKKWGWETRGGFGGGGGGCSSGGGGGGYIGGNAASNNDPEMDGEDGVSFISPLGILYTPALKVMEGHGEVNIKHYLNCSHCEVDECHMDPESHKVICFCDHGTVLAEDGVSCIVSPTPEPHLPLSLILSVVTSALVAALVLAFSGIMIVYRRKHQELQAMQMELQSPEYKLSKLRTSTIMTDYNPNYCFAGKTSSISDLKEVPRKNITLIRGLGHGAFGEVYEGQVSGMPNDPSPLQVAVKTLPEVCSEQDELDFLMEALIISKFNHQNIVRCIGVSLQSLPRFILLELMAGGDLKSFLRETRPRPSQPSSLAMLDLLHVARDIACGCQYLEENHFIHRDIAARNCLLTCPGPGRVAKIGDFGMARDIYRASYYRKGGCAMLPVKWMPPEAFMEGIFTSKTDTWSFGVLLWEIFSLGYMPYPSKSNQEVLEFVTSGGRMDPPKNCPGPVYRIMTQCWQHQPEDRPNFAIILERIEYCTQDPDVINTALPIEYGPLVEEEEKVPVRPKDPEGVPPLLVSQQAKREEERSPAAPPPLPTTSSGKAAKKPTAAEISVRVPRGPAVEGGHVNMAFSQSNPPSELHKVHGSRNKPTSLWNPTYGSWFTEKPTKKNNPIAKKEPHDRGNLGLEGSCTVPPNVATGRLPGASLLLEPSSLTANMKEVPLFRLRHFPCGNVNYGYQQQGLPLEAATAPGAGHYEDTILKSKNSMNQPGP

[12] = test system: EFM-19; assay: Inhibition of cell proliferation in human EFM-19 cells upto 10 umol/L incubated for 72 hrs by DAPI staining based analysis; type: functional; conditions: dose <= 10.0 µmol/L
[13] = molecular target: Fibroblast growth factor receptor 3 (Homo sapiens) (UniProt P22607); assay: Inhibition of FGFR3 (unknown origin) at 1 uM in presence of ATP relative to control; values are per cent of control
Fibroblast growth factor receptor 3 (Homo sapiens), sequence (P22607 23-806 limits assumed): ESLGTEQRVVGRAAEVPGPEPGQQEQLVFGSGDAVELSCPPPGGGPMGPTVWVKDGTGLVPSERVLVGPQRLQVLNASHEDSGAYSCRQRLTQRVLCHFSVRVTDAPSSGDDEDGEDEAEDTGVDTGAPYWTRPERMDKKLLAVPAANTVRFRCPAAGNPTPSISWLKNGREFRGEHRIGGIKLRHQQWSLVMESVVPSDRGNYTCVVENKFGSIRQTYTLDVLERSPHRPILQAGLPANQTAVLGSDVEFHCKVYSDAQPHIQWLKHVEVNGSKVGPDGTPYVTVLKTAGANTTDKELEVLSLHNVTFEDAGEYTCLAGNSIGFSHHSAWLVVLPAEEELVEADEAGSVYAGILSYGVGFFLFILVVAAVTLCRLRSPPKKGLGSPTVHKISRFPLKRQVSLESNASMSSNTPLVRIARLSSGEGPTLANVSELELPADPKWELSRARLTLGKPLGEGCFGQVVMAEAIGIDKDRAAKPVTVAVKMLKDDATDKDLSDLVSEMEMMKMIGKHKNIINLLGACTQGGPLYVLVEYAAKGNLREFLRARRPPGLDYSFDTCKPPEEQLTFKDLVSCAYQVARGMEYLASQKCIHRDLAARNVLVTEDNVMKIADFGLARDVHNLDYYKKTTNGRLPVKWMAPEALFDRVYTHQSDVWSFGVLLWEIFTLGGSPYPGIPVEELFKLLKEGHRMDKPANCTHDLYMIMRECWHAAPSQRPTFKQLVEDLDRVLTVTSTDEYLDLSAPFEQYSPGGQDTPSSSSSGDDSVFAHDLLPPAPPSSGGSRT

[14] = molecular target: Fibroblast growth factor receptor 4 (Homo sapiens) (UniProt P22455); assay: Inhibition of FGFR4 (unknown origin) at 1 uM in presence of ATP relative to control; values are per cent of control
[15] = molecular target: Homeodomain-interacting protein kinase 2 (Homo sapiens) (UniProt Q9H2X6); assay: Inhibition of HIPK2 (unknown origin) at 1 uM in presence of ATP relative to control; values are per cent of control
[16] = molecular target: Protein kinase C beta type (Homo sapiens) (UniProt P05771); assay: Inhibition of PKCbetal (unknown origin) at 1 uM in presence of ATP relative to control; values are per cent of control
Protein kinase C beta type (Homo sapiens), sequence (P05771 2-671 limits assumed): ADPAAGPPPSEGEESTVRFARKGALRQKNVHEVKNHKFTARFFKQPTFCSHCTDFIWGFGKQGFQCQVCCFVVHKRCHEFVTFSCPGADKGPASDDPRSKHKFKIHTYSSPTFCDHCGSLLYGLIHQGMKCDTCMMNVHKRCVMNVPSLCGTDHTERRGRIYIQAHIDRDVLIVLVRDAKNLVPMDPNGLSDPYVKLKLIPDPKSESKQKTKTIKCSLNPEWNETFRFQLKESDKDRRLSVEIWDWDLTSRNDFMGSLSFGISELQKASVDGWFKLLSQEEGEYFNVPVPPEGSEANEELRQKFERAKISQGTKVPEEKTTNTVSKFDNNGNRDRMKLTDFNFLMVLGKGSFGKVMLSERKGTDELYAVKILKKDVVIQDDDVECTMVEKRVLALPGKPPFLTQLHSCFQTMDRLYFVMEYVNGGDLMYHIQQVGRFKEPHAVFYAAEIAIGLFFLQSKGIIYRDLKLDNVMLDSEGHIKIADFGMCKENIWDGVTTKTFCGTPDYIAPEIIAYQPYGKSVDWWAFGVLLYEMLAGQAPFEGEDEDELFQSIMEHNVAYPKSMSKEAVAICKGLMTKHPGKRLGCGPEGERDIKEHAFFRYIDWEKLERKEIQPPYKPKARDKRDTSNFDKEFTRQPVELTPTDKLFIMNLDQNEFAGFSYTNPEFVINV

[17] = test system: HT-1376; assay: Inhibition of cell proliferation in human HT-1376 cells upto 10 umol/L incubated for 72 hrs by DAPI staining based analysis; type: functional; conditions: dose <= 10.0 µmol/L
[18] = test system: SH-4; assay: Inhibition of cell proliferation in human SH-4 cells upto 10 umol/L incubated for 72 hrs by DAPI staining based analysis; type: functional; conditions: dose <= 10.0 µmol/L
[19] = test system: JeKo-1; assay: Inhibition of cell proliferation in human JeKo-1 cells upto 10 umol/L incubated for 72 hrs by DAPI staining based analysis; type: functional; conditions: dose <= 10.0 µmol/L
[20] = molecular target: Ribosomal protein S6 kinase alpha-2 (Homo sapiens) (UniProt Q15349); assay: Inhibition of Rsk3 (unknown origin) at 1 uM in presence of ATP relative to control; values are per cent of control
Ribosomal protein S6 kinase alpha-2 (Homo sapiens), sequence (Q15349 whole entry): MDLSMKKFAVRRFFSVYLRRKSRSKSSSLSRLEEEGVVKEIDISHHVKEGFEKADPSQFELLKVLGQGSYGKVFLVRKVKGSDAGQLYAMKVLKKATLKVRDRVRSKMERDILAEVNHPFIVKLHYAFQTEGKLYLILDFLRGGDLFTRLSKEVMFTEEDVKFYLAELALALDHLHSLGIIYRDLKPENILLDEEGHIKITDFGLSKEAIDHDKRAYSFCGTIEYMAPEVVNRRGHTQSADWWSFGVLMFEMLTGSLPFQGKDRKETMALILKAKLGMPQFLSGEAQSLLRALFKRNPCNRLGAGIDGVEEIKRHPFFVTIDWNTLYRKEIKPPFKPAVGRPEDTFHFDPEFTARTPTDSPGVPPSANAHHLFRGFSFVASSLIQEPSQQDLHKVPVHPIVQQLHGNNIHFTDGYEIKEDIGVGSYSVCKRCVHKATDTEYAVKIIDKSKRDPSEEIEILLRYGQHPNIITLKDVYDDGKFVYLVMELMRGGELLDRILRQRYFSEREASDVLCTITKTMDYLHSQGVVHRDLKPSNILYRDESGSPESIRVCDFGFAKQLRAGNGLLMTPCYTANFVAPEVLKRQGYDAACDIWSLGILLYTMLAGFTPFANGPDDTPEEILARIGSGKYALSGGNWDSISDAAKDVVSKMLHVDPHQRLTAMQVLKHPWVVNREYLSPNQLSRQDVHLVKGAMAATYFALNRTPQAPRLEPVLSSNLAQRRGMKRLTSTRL

[21] = molecular target: Serine/threonine-protein kinase Nek3 (Homo sapiens) (UniProt P51956); assay: Inhibition of NEK3 (unknown origin) at 1 uM in presence of ATP relative to control; values are per cent of control
[22] = Clearance in mouse at 1 mg/kg, iv administered as 20% hydroxypropyl-beta-cyclodextrin formulation by LC-MS analysis; type: ADME, organism-based; conditions: in vivo
[23] = molecular target: Tyrosine-protein kinase ITK/TSK (Homo sapiens) (UniProt Q08881); assay: Inhibition of ITK (unknown origin) at 1 uM in presence of ATP relative to control; values are per cent of control
Tyrosine-protein kinase ITK/TSK (Homo sapiens), sequence (Q08881 whole entry): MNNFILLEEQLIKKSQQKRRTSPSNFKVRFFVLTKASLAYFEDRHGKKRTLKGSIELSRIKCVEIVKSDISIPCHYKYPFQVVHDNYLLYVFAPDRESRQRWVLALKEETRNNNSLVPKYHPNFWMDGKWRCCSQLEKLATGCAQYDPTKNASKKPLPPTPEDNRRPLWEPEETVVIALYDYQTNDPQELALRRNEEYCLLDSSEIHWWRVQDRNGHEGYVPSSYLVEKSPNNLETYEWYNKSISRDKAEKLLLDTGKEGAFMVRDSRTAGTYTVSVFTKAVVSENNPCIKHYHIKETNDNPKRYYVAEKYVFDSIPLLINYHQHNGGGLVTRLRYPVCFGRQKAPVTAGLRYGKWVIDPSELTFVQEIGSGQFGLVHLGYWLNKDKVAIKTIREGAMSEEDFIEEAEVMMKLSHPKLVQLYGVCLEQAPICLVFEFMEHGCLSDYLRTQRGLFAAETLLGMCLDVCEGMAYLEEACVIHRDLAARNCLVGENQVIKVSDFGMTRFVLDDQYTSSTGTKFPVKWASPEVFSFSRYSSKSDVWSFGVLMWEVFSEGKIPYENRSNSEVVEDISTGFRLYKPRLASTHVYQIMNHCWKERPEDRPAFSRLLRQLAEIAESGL

[24] = test system: FaDu; assay: Inhibition of cell proliferation in human FaDu cells upto 10 umol/L incubated for 72 hrs by DAPI staining based analysis; type: functional; conditions: dose <= 10.0 µmol/L
[25] = molecular target: Focal adhesion kinase 1 (Homo sapiens) (UniProt Q05397); assay: Inhibition of FAK (unknown origin) at 1 uM in presence of ATP relative to control; values are per cent of control
[26] = molecular target: Serine/threonine-protein kinase 33 (Homo sapiens) (UniProt Q9BYT3); assay: Inhibition of STK33 (unknown origin) at 1 uM in presence of ATP relative to control; values are per cent of control
Serine/threonine-protein kinase 33 (Homo sapiens), sequence (Q9BYT3 whole entry, looked up, the tested form may be a part): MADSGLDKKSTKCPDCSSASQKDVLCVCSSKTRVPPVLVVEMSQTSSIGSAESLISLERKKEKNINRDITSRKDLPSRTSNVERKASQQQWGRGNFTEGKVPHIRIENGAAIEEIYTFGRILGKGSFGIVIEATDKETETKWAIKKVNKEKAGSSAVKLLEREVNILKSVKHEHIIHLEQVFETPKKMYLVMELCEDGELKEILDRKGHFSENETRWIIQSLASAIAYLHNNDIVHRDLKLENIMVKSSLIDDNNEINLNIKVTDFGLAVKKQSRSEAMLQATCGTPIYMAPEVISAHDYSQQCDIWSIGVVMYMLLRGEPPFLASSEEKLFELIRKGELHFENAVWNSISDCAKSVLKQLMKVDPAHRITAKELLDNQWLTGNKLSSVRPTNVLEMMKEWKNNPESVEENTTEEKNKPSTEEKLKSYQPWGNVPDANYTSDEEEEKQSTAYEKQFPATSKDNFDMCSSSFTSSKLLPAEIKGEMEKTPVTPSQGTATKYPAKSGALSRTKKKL

[27] = Inhibition of N-terminal 6His-tagged TRKC G623R mutant (506 to 829 residues) (unknown origin) expressed in Escherichia coli incubated for 60 mins by [gamma-33P]-ATP based TopCount NXT liquid scintillation assay; parameters: species or system Homo sapiens
[28] = molecular target: Testis-specific serine/threonine-protein kinase 1 (Homo sapiens) (UniProt Q9BXA7); assay: Inhibition of TSSK1 (unknown origin) at 1 uM in presence of ATP relative to control; values are per cent of control
[29] = AUC in adult patient with recurrent LMNA-NTRK1 rearranged colorectal cancer at 100 mg administered twice a day as powder-in-capsule or liquid formulation for 22 day by LC-MS/MS analysis; type: ADME; conditions: human, in vivo, po
[30] = molecular target: Platelet-derived growth factor receptor beta (Homo sapiens) (UniProt P09619); assay: Inhibition of PDGFRbeta (unknown origin) at 1 uM in presence of ATP relative to control; values are per cent of control

In the case of `C[C@@H]1CCc2ncc(F)cc2[C@H]2CCCN2c2ccn3ncc(c3n2)C(=O)N1` [SELITRECTINIB], the inhibition [1] is reported as “inactive”, the residual activity [2] is reported as 87.5% and the Activity [3] is reported as “Active”. The residual activity [4] was 100%, the residual activity [5] was 104% and the residual activity [6] was 118%. It also gave a residual activity [7] of 37.5%, a residual activity [8] of 95% and a residual activity [9] of 95.5%. For the same compound, the residual activity [10] was 87.5%, the residual activity [11] was 50% and the inhibition [12] was “inactive”. The residual activity [13] was 119%, the residual activity [14] was 128% and the residual activity [15] was 113%. The residual activity [16] was 108%, the inhibition [17] was “inactive” and the inhibition [18] was “inactive”. The inhibition [19] was “inactive”, the residual activity [20] was 106% and the residual activity [21] was 110%. The clearance [22] was 0.29 L/h/kg, the residual activity [23] was 90.5% and the inhibition [24] was “inactive”. For the same compound, the residual activity [25] was 81%, the residual activity [26] was 106% and the IC50 [27] was 2.3 nM. For the same compound, the residual activity [28] was 99%, the AUC at 528 h [29] was 3.87 µg·h/mL and the residual activity [30] was 112%.

Source: ChEMBL document CHEMBL5678816, “A Next-Generation TRK Kinase Inhibitor Overcomes Acquired Resistance to Prior TRK Kinase Inhibition in Patients with TRK Fusion-Positive Solid Tumors” (Cancer Discov, 2017)
